Assay results reported in patent publication US7078389B2, “Chemically modified oligonucleotide for site-directed mutagenesis” (priority 1993, dated 2006).
“Also recorded” adds a separate entry of the source.

What was measured:
[1] = system: supF gene of the lambda vector; experiment: Sequence analysis of supF mutants from lambda vector; parameters: species or system E. coli; details: plus UVA
Excerpt: FIGS. 2A and 2B show a sequence analysis of targeted mutagenesis in the supF gene by the psoralen-linked triplex-forming oligonucleotide (pso-AG10). In FIG. 2A, mutations produced by pso-AG10 and UVA are indicated above each base pair, with the listed base representing the change from the sequence in the top strand. […] The asterisk indicates the targeted base pair at position 167. DNA sequence data was obtained by automated methods after polymerase chain reaction amplification of the supF genes from lambda phage plaques in accordance with the method of Connell et al., Biotechniques 5:342 (1987). FIG. 2B is a compilation of mutations induced in supF by 8-methoxypsoralen and UVA in mouse L-cells using the lambda supF vector of FIG. 1 or generated using a plasmid shuttle vector in monkey Vero cells in accordance with the method of Bredberg and Nachmansson, Carcinogenesis 8:1923 (1987), to compare the mutations produced in supF by free psoralen with those produced by the triplex forming oligonucleotide AG10.
To obtain direct evidence for targeted mutagenesis, a series of independent mutants produced in the supF gene of the lambda vector by pso-AG10 and UVA were sequenced. […] The A:T base pair at 167 forms a triplet with the 5′ adenine to which the psoralen is tethered in AG10, and so it is the closest base pair to the psoralen. The overwhelming predominance of the T:A to A:T transversion at this site is consistent with the mutagenic action of psoralen, which tends to form adducts at pyrimidines, and especially at thymidines. It should be noted that these mutations are independent and none of the mutations represent siblings because each packaged lambda particle gives rise to a single, separate lambda plaque on the bacterial lawn.

250 bp supF PCR fragment = experiment: Hinf I restriction enzyme protection assay, PCR amplified supF target; format: binding, E. coli; details: 100-fold molar excess of oligonucleotide
Excerpt: FIG. 4 is a schematic representation showing the basis of a restriction enzyme protection assay to detect site-specific triplex formation within the supF gene. The formation of triplex DNA by psoralen-AG10 at its targeted site (bp 167–176 of the supF gene) overlaps with the Hinf I restriction site at bp 164–168 (indicated in the diagram by the box around the appropriate base pairs). Digestion of the unprotected 250 bp supF PCR fragment with Hinf I is expected to yield three fragments of sizes 150, 65, and 35 bp. In contrast, with the Hinf I site at bp 164–168 blocked by triplex formation at bp 167–176, fragments of sizes 150 and 100 bp are predicted.
The 250 bp supF target (70 nM) was incubated with a 100-fold molar excess of psoralen-AG10 as described for the binding assay. Irradiation of samples was performed at a dose of 1.8 J/cm^2. A radiometer was used to measure the lamp output (typical UVA irradiance of 5–7 mW/cm^2 at 320–400 nm). Following the binding and irradiation steps, samples were digested for 2 hours at 37° C. with Hinf I. Loading buffer was added and samples were heated 10 minutes at 55° C., and run for 1 hour on a 4.5% Nusieve gel in TAE buffer at 80 v (10 v/cm).
Site-specific formation of triplex DNA. […] This is diagrammed in FIG. 4. […] Analysis by agarose gel electrophoresis of Hinf I digestions of the 250 bp supF gene PCR fragment under various conditions was done. The supF fragment was incubated with or without psoralen-AG10 at a 100-fold molar excess, treated by 1.8 J/cm^2 of UVA irradiation, and then subjected to Hinf I digestion. Digestion of the unprotected 250 bp supF PCR fragment with Hinf I yielded three fragments of sizes 150, 65, and 35 in contrast with the uncut fragment of 250 bp. […] In the absence of psoralen-AG10, UVA light had no effect on Hinf I digestion.

[2] = system: supF gene within the pSP189 SV40 vector; experiment: Sequence analysis and colony hybridization of supF mutants from SV40 vector; parameters: species or system monkey
Method: Colony hybridization. Ampicillin resistant colonies of SY204 carrying shuttle vector plasmids with supF gene mutations, along with appropriate control colonies, were grown on LB/ampicillin plates and transferred onto replica nylon filters for additional growth and in situ lysis to allow colony hybridization by standard methods. The DNA was fixed to the filters by UV crosslinking, and the filters were incubated in 6×SSC, 5×Denhardt's solution, 0.5% SDS, and 5×10^5 cpm/ml of ^32P-labeled oligonucleotides at 42° C. for 18 hours. The filters were washed in 1×SSC and 0.1% SDS for 30 minutes at 25° C. and then in 1×SSC and 0.1% SDS at 42° C. for 2 hours. […] Binding of the oligonucleotide probes was determined by autoradiography.
DNA Sequencing. DNA was prepared for sequencing by isolating DNA from a 3 ml bacterial culture using a Promega Magic Miniprep kit (Promega, Madison, Wis.). DNA sequence data was obtained by direct chain termination sequencing of the plasmid DNA using automated methods.
Sequence analysis of targeted mutations. A set of 20 mutants generated in the supF gene in the SV40 vector by psoralen-AG10 (at the 1000:1 ratio) and UVA light were subjected to DNA sequence analysis.
In the analysis of mutagenesis in SV40 vectors, it is often difficult to determine if identical mutations arose independently or if they were the result of a single mutational event amplified by subsequent vector replication. In order to exclude the possibility that such sibling mutations were isolated in these experiments, use was made of an advantageous feature of the pSP189 system, in which over 100,000 different, random-sequence 8 base pair oligonucleotides were cloned into a region of pSP189 next to the supF gene. The vector DNA is prepared en masse from this library of vector clones containing the different 8 bp sequences. In this way, at the same time that the sequence of the supF gene in a mutant vector is ascertained, the 8 base pair signature sequence in that particular plasmid molecule can also be identified by reading a few extra bases further in the sequence data. This enables comparisons between the 8 bp signature sequences in plasmids bearing the same supF mutation to see if they are siblings from the same mutational event or if they are independent mutations.
Instead of direct sequencing, a technique of differential oligonucleotide hybridizations was used (Sidransky et al., Science 252:706–709 (1991)). In this assay, undertaken in an effort to streamline mutant analysis, ampicillin resistant bacterial colonies containing mutant supF genes were grown on nylon filters to allow nucleic acid hybridizations.

[3] = supF fragment 70 nM, UVA 1.8 J/cm^2

Substance	Position of supF mutations relative to targeted base pair 167 [1]	Protection from Hinf I digestion (250 bp supF PCR fragment; [3])	Share of sequenced supF mutations that are the T:A to A:T transversion at targeted base pair 167 ([1]; 25 mutants) [%]	Protection from Hinf I digestion (250 bp supF PCR fragment; no UVA)	Share of sequenced mutations with the same base change at the targeted base pair ([2]; 20 mutants, 1000:1 ratio, UVA, DNA sequencing) [%]	Share of mutants carrying the T:A to A:T mutation at bp 167 ([2]; 42 mutants, colony hybridization) [%]	Share of all viral genomes with intended base change (T:A to A:T at bp 167) ([2]; 1000:1 ratio, UVA)	Number of colonies with hybridization specific to the 167 mutant probe ([2]; of 19 colonies assayed, colony hybridization)	Number of sequenced mutations with T:A to A:T transversion at base pair 167 ([2]; of 20 mutants, 1000:1 ratio, UVA, DNA sequencing)	Number of point mutations at base pairs adjacent to the targeted base pair ([2]; of 20 sequenced mutants)	Number of small deletions including or abutting the targeted base pair ([2]; of 20 sequenced mutants)	Number of mutants carrying the T:A to A:T mutation at bp 167 ([2]; of 42 mutants, colony hybridization (including 20 sequenced))	Share of mutations that are the same T:A to A:T transversion, data taken together ([2]; sequencing and hybridization together)
pso-^5′GGGGGAAGGA^3′ (DNA NGGGGGAAGGA; psoralen conjugated at 5' end, further chemistry not given here) [pso-GA10, reference compound]	Neither of the two mutations induced by the reverse oligomer, pso-GA10, were found to occur at base pair 167	no protection from Hinf I cutting	–	–	–	–	–	–	–	–	–	–	–
4′-hydroxymethyl-4,5′,8-trimethylpsoralen-^5′AGGAAGGGGG^3′ (DNA NAGGAAGGGGG; 4'-hydroxymethyl-4,5',8-trimethylpsoralen conjugated at 5' end, further chemistry not given here) [pso-AG10]	All except one of the 25 mutations produced by pso-AG10 is at or near the targeted T:A base pair at position 167; also recorded: almost all were targeted by the triplex-forming oligonucleotide	protection of the Hinf I site at bp 164–168 but not the one at bp 129–133	56	not sufficient to prevent Hinf I digestion	55	52	over 4%	9	11	3	6	22	at least 50%
